Data on 1 compound can be found in patent US20250041461A1, “[177LU] LUTETIUM-PSMA I&T COMPOSITION AND DOSIMETRY, KIT, METHOD OF MAKING, AND METHOD OF USING THEREOF” (Curium US LLC, priority 2023, published 2025).

Structures are written as SMILES.

This series is described as follows: Eclipse sub-study, cycle 3 dosimetry (16 patients). It counts as in vivo, human. The following applies: cycle 3, 16 patients. On the procedure: To evaluate potential changes in the tracer's kinetics and uptake after multiple treatment cycles, 16 of the 27 patients included in the dosimetry sub study, were imaged at both cycle 1 and cycle 3. Among these, at cycle 3, three patients were imaged at all 4 timepoints and the other 13 were imaged at one or two timepoints only (24 h, 48 h or both 24 h and 48 h) (Table 7 in Appendix 1). For these 13 patients, the TACs obtained at cycle 1 were used for each source organ and scaled to the normalized activity value(s) measured at Cycle 3. For patients imaged at two timepoints, the TACs were preferably scaled using the average scaling factor between the two timepoints.
A subgroup of 16 out of the 27 patients underwent and additional dosimetry assessment at Cycle 3. Among these, three patients had dosimetry performed based on images taken at 4 timepoints, while the remaining patients had dosimetry performed at 1 or 2 imaging timepoints only, as described in Section 4.4.1.
The organ absorbed radiation doses were compared to the mean organ absorbed radiation doses from Cycle 1 for the same subset of patients, as shown in Table 5. The dosimetry estimations obtained at cycle 3 align closely with those from cycle 1. At this timepoint, the kidneys had the highest dose (0.49±0.19 Gy/GBq) but, for most organs, the estimated absorbed dose values were similar to or lower compared to cycle 1. […]

Regarding `O=C([O-])CC[C@H](NC(=O)N[C@@H](CCCCNC(=O)CCCCCCC(=O)NCCCC[C@@H](NC(=O)[C@@H](Cc1ccccc1)NC(=O)[C@@H](Cc1ccc(O)c(I)c1)NC(=O)CC[C@H](C(=O)[O-])N1CCN(CC(=O)[O-])CCN(CC(=O)[O-])CCN(CC(=O)[O-])CC1)C(=O)[O-])C(=O)[O-])C(=O)[O-].[177Lu+3].[H+].[H+].[H+].[H+].[H+]` [^177Lu-PSMA I&T, (3S,7S,26R,29R,32R,37R)-29-benzyl-32-(4-hydroxy-3-iodobenzyl)-5,13,20,28,31,34-hexaoxo-37-(4,7,10-tris(carboxymethyl)-1,4,7,10-tetraazacyclododecan-1-yl)-4,6,12,21,27,30,33-heptaazaheptatriacontane-1,3,7,26,37-pentacarboxylic acid; lutetium-177 (III)], the “absorbed dose, kidneys” value is 0.49±0.19 Gy/GBq.
